Earlier results on one compound are cited in patent US20090048316A1, “Pharmaceutical composition comprising candesartan cilexetil” (priority 2007, published 2009).

Where two headings read alike, the source gives them in different places.

Take `CCOc1nc2cccc(C(=O)OC(C)OC(=O)OC3CCCCC3)c2n1Cc1ccc(-c2ccccc2-c2nnn[nH]2)cc1` (racemic) [Candesartan cilexetil, (±)-1-[[(cyclohexyloxy)carbonyl]oxy]ethyl-2-ethoxy-1-[[2′-(1H-tetrazol-5-yl)[1,1′biphenyl]-4-yl]methyl]-1H-benzimidazole-7-carboxylate]: the solubility result is on record as “practically insoluble” (in methanol) and “practically insoluble” (in water).
